Legend:
Type in all cases: cell-based
human TLR8 = biological target: T1, human TLR8 (Homo sapiens, UniProt Q9NR97); assay: TLR8 inhibition reporter assay (HEK-Blue cells, SEAP reporter, R848 stimulation); conditions: HEK-Blue cells overexpressing human TLR8, SEAP reporter, R848 15.9 μM; read-out: TLR8 IC50
T1 construct: host or cells: HEK-Blue cells
T1 sequence (Q9NR97 27-1041): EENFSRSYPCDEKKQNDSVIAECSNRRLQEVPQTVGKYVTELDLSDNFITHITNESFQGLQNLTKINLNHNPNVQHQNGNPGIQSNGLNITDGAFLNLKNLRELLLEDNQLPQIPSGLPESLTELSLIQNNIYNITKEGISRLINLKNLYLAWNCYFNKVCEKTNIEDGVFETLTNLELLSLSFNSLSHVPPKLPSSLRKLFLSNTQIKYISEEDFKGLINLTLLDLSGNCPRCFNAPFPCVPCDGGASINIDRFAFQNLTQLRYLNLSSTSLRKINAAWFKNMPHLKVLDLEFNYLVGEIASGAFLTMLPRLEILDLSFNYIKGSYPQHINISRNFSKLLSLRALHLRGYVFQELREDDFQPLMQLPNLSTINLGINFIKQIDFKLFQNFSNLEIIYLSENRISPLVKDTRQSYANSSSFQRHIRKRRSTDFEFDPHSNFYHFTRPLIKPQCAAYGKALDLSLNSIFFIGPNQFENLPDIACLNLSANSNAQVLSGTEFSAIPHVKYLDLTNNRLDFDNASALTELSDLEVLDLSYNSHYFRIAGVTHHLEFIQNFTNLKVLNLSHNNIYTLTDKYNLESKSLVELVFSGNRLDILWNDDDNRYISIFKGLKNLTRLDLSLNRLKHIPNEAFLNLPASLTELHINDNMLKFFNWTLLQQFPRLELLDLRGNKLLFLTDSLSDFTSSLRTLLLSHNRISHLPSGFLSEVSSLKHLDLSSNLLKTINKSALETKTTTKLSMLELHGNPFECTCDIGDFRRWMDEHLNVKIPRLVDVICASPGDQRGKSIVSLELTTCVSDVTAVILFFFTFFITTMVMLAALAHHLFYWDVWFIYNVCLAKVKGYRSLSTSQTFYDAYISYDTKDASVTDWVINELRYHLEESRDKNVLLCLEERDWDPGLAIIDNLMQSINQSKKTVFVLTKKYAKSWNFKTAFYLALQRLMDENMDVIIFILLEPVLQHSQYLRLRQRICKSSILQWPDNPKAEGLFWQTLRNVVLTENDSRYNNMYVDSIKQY
Procedure, shortened: (§1)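 HEK-Blue cells overexpressing human TLR7, TLR8 or TLR9 carry a SEAP reporter driven by NF-κB/AP-1 sites. Compounds (0.05 nM–50 μM) were preincubated 30 min at room temperature, then cells were stimulated with gardiquimod 7.5 μM (TLR7), R848 15.9 μM (TLR8) or ODN2006 5 nM (TLR9) for 22 h at 37 °C.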

human TLR7 = biological target: T2, human TLR7 (Homo sapiens, UniProt Q9NYK1); assay: TLR7 inhibition reporter assay (HEK-Blue cells, SEAP reporter, gardiquimod stimulation); conditions: HEK-Blue cells overexpressing human TLR7, SEAP reporter, gardiquimod 7.5 μM; read-out: TLR7 IC50
T2 construct: host or cells: HEK-Blue cells
T2 sequence (Q9NYK1 27-1049): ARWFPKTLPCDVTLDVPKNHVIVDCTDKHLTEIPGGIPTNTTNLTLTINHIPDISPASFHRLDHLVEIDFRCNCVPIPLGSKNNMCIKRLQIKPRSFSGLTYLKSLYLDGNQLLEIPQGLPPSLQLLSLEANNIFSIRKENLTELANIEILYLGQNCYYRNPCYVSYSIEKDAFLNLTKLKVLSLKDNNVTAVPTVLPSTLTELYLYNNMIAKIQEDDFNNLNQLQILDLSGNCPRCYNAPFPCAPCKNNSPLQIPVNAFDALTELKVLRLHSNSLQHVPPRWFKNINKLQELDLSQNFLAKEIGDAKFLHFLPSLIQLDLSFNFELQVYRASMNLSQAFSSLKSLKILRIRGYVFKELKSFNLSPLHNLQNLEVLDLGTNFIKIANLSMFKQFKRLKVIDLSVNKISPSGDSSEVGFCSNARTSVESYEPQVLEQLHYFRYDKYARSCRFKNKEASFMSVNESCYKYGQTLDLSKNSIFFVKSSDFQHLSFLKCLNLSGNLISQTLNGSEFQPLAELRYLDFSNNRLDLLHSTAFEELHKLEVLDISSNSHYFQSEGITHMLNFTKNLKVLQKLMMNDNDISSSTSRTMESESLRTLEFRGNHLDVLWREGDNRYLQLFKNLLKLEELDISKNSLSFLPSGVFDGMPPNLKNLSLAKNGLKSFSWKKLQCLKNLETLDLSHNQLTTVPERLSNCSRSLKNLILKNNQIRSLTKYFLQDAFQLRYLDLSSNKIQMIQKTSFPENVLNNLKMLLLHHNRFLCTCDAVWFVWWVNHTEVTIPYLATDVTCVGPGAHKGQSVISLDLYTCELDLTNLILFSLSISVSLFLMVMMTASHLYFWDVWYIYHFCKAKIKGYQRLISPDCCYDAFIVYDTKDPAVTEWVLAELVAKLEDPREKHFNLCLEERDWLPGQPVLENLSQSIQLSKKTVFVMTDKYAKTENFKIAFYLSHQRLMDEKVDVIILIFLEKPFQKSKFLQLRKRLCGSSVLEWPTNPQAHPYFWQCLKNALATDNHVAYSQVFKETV
Procedure, shortened: as §1

human TLR9 = biological target: T3, human TLR9 (Homo sapiens, UniProt Q9NR96); assay: TLR9 inhibition reporter assay (HEK-Blue cells, SEAP reporter, ODN2006 stimulation); conditions: HEK-Blue cells overexpressing human TLR9, SEAP reporter, ODN2006 5 nM
T3 construct: host or cells: HEK-Blue cells
T3 sequence (Q9NR96 26-1032): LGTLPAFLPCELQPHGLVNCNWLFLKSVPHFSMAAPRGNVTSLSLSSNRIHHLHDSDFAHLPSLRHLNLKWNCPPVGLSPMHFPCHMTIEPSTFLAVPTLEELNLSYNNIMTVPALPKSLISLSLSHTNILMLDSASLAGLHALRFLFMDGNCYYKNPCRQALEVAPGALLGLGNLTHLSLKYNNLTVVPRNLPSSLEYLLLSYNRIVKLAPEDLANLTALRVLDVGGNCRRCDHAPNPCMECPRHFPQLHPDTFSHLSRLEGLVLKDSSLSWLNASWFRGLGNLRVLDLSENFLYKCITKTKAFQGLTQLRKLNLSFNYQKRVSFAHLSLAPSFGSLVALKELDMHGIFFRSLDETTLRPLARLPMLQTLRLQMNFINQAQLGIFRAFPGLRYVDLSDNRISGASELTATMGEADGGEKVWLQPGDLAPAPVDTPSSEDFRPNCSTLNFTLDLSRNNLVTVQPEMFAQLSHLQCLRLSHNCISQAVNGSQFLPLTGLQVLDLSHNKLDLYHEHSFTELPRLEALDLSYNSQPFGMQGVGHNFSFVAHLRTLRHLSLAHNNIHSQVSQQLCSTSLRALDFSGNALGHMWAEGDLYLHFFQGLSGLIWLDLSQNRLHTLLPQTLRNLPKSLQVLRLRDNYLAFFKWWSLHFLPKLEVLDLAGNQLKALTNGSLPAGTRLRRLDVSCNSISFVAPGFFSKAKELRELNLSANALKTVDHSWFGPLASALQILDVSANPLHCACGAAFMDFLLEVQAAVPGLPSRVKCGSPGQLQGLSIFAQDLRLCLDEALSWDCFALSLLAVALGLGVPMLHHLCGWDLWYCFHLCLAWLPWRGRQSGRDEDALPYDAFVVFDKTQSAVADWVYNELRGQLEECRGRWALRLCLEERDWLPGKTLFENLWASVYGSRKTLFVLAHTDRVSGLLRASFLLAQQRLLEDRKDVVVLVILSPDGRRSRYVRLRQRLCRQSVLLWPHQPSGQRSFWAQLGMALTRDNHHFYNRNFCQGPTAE
Procedure, shortened: as §1

SMILES | IC50 (human TLR8) [nM] | IC50 (human TLR7) [nM] | IC50 (human TLR9) [nM]
CC(C)c1c(-c2cn(C)c3ncccc23)[nH]c2sc(C3CCC(NCC(C)(C)O)CC3)nc12 (single isomer, unassigned) [Example 182, 1-((4-(6-isopropyl-5-(1-methyl-1H-pyrrolo[2,3-b]pyridin-3-yl)-4H-pyrrolo[3,2-d]thiazol-2-yl)cyclohexyl)amino)-2-methylpropan-2-ol] | 0.76 | 1.74 | 13500
COc1cc(-c2[nH]c3sc(C4CCN(CC5(C)COC5)CC4)nc3c2C(C)C)cn2ncnc12 [Example 14, 6-isopropyl-5-(8-methoxy-[1,2,4]triazolo[1,5-a]pyridin-6-yl)-2-(1-((3-methyloxetan-3-yl)methyl)piperidin-4-yl)-4H-pyrrolo[3,2-d]thiazole] | 0.94 | 1.92 | 3840
Cc1c(-c2[nH]c3sc(C4CCN(C5CCOCC5)CC4)nc3c2C(C)C)cn2ncnc2c1C [Example 46, 5-(7,8-dimethyl-[1,2,4]triazolo[1,5-a]pyridin-6-yl)-6-isopropyl-2-(1-(tetrahydro-2H-pyran-4-yl)piperidin-4-yl)-4H-pyrrolo[3,2-d]thiazole] | 0.11 | 0.57 | 2500
Cc1c(-c2[nH]c3sc(C4CCC(N5CC6(C5)CS(=O)(=O)C6)CC4)nc3c2C(C)C)cn2ncnc2c1C (single isomer, unassigned) [Example 234, 6-(4-(5-(7,8-dimethyl-[1,2,4]triazolo[1,5-a]pyridin-6-yl)-6-isopropyl-4H-pyrrolo[3,2-d]thiazol-2-yl)cyclohexyl)-2-thia-6-azaspiro[3.3]heptane 2,2-dioxide] | 59.8 | 15.1 | > 50000
COc1cc(-c2[nH]c3sc(C4CCC(NC5CC6(CNC6)C5)CC4)nc3c2C(C)C)cn2ncnc12 (single isomer, unassigned) [Example 117, N-(4-(6-isopropyl-5-(8-methoxy-[1,2,4]triazolo[1,5-a]pyridin-6-yl)-4H-pyrrolo[3,2-d]thiazol-2-yl)cyclohexyl)-2-azaspiro[3.3]heptan-6-amine] | 22.9 | 5.72 | 7510
Cc1c(-c2[nH]c3sc(C4CCC(N5CCOCC5)CC4)nc3c2C(C)C)cn2ncnc2c1C (single isomer, unassigned) [Example 213, 4-(4-(5-(7,8-dimethyl-[1,2,4]triazolo[1,5-a]pyridin-6-yl)-6-isopropyl-4H-pyrrolo[3,2-d]thiazol-2-yl)cyclohexyl) morpholine] | 3.41 | 4.64 | 25500
COC(C)(C)CNC1CCN(c2nc3c(C(C)C)c(-c4cn5ncnc5c(C)c4C)[nH]c3s2)CC1 [Example 294, 1-(5-(7,8-dimethyl-[1,2,4]triazolo[1,5-a]pyridin-6-yl)-6-isopropyl-4H-pyrrolo[3,2-d]thiazol-2-yl)-N-(2-methoxy-2-methylpropyl)piperidin-4-amine] | 0.42 | 7.97 | 8990

Now from value to molecule:

IC50 (human TLR8) [nM] | IC50 (human TLR7) [nM] | IC50 (human TLR9) [nM] | SMILES
12.8 | 12.9 | 18800 | Cc1c(-c2[nH]c3sc(N4C[C@@H](C)N(C5COC5)C[C@@H]4C)nc3c2C(C)C)cn2ncnc2c1C [Example 328, 2-((2S,5R)-2,5-dimethyl-4-(oxetan-3-yl)piperazin-1-yl)-5-(7,8-dimethyl-[1,2,4]triazolo[1,5-a]pyridin-6-yl)-6-isopropyl-4H-pyrrolo[3,2-d]thiazole]
> 3130 | > 3130 | 6260 | Cc1cc(-c2[nH]c3sc(N4CCN(C(C)C)C[C@H]4C)nc3c2C(C)C)cn2ncnc12 [Example 366, (R)-6-isopropyl-2-(4-isopropyl-2-methylpiperazin-1-yl)-5-(8-methyl-[1,2,4]triazolo[1,5-a]pyridin-6-yl)-4H-pyrrolo[3,2-d] thiazole]
1.53 | 7.77 | 12300 | Cc1c(-c2[nH]c3sc(N4CC5(CN(CC6CCOCC6)C5)C4)nc3c2C(C)C)cn2ncnc2c1C [Example 301, 5-(7,8-dimethyl-[1,2,4]triazolo[1,5-a]pyridin-6-yl)-6-isopropyl-2-(6-((tetrahydro-2H-pyran-4-yl)methyl)-2,6-diazaspiro[3.3]heptan-2-yl)-4H-pyrrolo[3,2-d]thiazole]
200 | 1.8 | 3100 | Cc1cc(-c2[nH]c3nc(C4CCNCC4)sc3c2C(C)C)cn2ncnc12 [Example 411, 6-isopropyl-5-(8-methyl-[1,2,4]triazolo[1,5-a]pyridin-6-yl)-2-(piperidin-4-yl)-4H-pyrrolo[2,3-d]thiazole]
1.91 | 16.9 | 10200 | Cc1c(-c2[nH]c3sc(N4C[C@@H](C)N(CC5CC5)C[C@@H]4C)nc3c2C(C)C)cn2ncnc2c1C [Example 332, 2-((2S,5R)-4-(cyclopropylmethyl)-2,5-dimethylpiperazin-1-yl)-5-(7,8-dimethyl-[1,2,4]triazolo[1,5-a]pyridin-6-yl)-6-isopropyl-4H-pyrrolo[3,2-d]thiazole]

From patent US20230139171A1 (SITA Information Networking Computing UK Limited, priority 2019, published 2023)
